Patent publication USRE48267E1, “Variants of C-type natriuretic peptide” (priority 2009, dated 2020)
Where a SMILES comes first, the peptide text is derived from it. Bridges are numbered along the chain shown (N, C = ends). The star is where a group is joined. MeO(CH2CH2O)23CH2CH2CO = COCCOCCOCCOCCOCCOCCOCCOCCOCCOCCOCCOCCOCCOCCOCCOCCOCCOCCOCCOCCOCCOCCOCCOCCC(=O)*

Key:
[1] = system: FGFR3^ach mouse femurs and tibias; assay: mouse organ culture model of endochondral bone growth, FGFR3^ach bones
Procedure: To determine the efficacy of CNP variants in stimulating longitudinal bone growth, CNP variants were tested in a mouse organ culture model of endochondral bone growth in wild-type mice and transgenic mice having a G380R mutation in the human FGFR-3 gene (FGFR3^wt/Ach heterozygote) which represent a mouse model of mild achondroplasia. In brief, the pharmacological activity of wild-type CNP22 and CNP variants was compared in an organ culture model of embryonic or neonatal mouse tibiae, isolated from wild-type and FGFR3^wt/Ach littermates. Overall bone growth and histological changes within the growth plate were assessed. Conditioned culture medium is also assessed for biomarkers of intracellular signaling (cGMP), cartilage metabolism (type II collagen, other collagens, aggrecan chondroitin sulfate), bone metabolism (bone alkaline phosphatase, osteocalcin, type I collagen [C-telopeptide, N-telopeptide]), and inflammation (interleukin-1, interleukin 6, interleukin-11).
The efficacy of wtCNP22, CNP37 and PEO24-[…]22(K4R) (SEQ ID NO: 36) in stimulating longitudinal femoral growth was evaluated in the mouse organ culture model. For these experiments femora were isolated from 2-3 day old wild-type mice and cultured in alphaMEM supplemented with 0.2% BSA, 0.5 mM L-glutamine, 40 units penicillin/mL and 40 ug streptomycin/mL, for 8 days in the presence of vehicle, CNP22 or CNP variants. The treatment commenced at day 0 and was repeated every two days thereafter, as the medium was changed. Bones were measured prior to treatment and every two days thereafter, using a dissection microscope fitted with a 1 cm eye-piece reticule. Conditioned medium was used for biomarker analysis. At day 8 bones were fixed in 4% paraformaldehyde for 24 hr, decalcified in 5% formic acid for 24 hrs, dehydrated and embedded in paraffin. Bones were sectioned at 5 um (microns), which were then deparaffinized, rehydrated, and stained with Alcian Blue for 30 min (pH 2.5; MasterTech). Alcian Blue stains cartilage blue. Stained sections were visualized and photographed by brightfield microscopy. The thickness of the hypertrophic region of the growth plate cartilage was determined by image analysis.
Furthermore, ex vivo distribution of CNP37 in the growth plate of FGFR3^ach mouse tibia was evaluated. Bone samples were prepared as described above. Paraffin sections were cut and heat fixed for 1 hour at 60° C. Antigen retrieval with 1% hyaluronidase at 37° C. (30 minutes) was followed by a 1 hour serum block (10% Normal Goat Serum). […]
In addition to the distribution of CNP variants in the bone growth plate, the ex vivo effects of CNP37, CNP22 and vehicle on cells in the FGFR3^ach and wild-type growth plate, e.g., hypertrophic cell size and cellularity of proliferating zone, were also evaluated. […]

[2] = system: FGFR3^ach mice; assay: efficacy in mouse model of mild achondroplasia; format: in vivo; conditions: 200 nmol/kg s.c. once daily for 5 weeks
Excerpt: To assess the biodistribution of CNP37 in the bone growth plate in vivo and the in vivo effects of CNP37 on the growth plate (including total growth plate thickness, hypertrophic zone thickness, and cellularity of proliferating zone), bone samples were obtained from FGFR3^ach mice treated with vehicle or CNP37 as described above. For biodistribution and in vivo effects studies, tibias were fixed and stored in 70% ethanol. For immunohistochemistry, the samples were decalcified in 5% formic acid for 2 days, dehydrated and embedded in paraffin. Bones were sectioned at 5 um (microns), which were then deparaffinized, rehydrated, and used for CNP immunohistochemistry as described above. For cellular image analysis, bones were sectioned at 5 (microns), and then deparaffinized, rehydrated, and stained with Alcian Blue for 30 minutes (pH 2.5; MasterTech) and Hematoxylin &
Eosin for 30 seconds. Stained sections were visualized and photographed by brightfield microscopy. Thicknesses of the growth plate and the proliferating and hypertrophic zones were measured using ImageJ software.
The efficacy of CNP variants in enhancing growth and correcting achondroplasia was tested in a mouse model of mild achondroplasia, using a strain of transgenic mice expressing a human FGFR-3 gene having a G380R mutation (FGFR3^ach) (Wang et al., Proc. Natl. Acad. Sci. USA, 96(8): 4455-4460 (1999); Naski et al., Development USA, 125: 4977-4988 (1998); U.S. Pat. Nos. 6,265,632 and 6,136,040).
At 3 weeks of age, FGFR3^ach mice and their wild-type littermates were anesthetized to have lateral whole-body X-ray images taken by Faxitron, and randomized by body weight into the following treatment groups (n=8/group): (1) wild-type/vehicle, (2) FGFR3^ach/vehicle, (3) FGFR3^ach/CNP37, and (4) FGFR3^ach/PEO24-GANRR-CNP22(K4R) (SEQ ID NO: 36). The mice received once daily subcutaneous (s.c.) administration of designated test article (vehicle or 200 nmol/kg CNP variant) for 5 weeks. Satellite groups (n=3) were used to confirm exposure of each test article following a single subcutaneous administration on Day 1. Wild-type male FVB mice that received daily s.c. injection of vehicle for 5 weeks were used as a control for normal growth.
X-ray measurements at baseline and at the end of the study were performed to determine change in the head length, area of the skull, and the external auditory meatus (EAM, the ear canal running from the outer ear to the middle ear). Body weight and tail length were measured at least once weekly, using a digital caliper to measure tail length, and body (nasoanal) length was measured after 5 weeks of treatment. Bone (tibia, femur, ulna and humerus) lengths were measured using a digital caliper at necropsy.
On Day 37, all mice were sacrificed by terminal anesthesia and whole-animal photographs and X-ray images by Faxitron were taken. Left and right tibia, femur, humerus, and ulna were collected and measured using a digital caliper. The left portions of each bone were processed for histology, and the right portions were snap-frozen for archival. Samples obtained from the bones were used to evaluate the effects of NP variants on endochondral bone growth.

CC[C@H](C)[C@@H]1NC(=O)[C@H](CCCNC(=N)N)NC(=O)[C@H](CC(=O)O)NC(=O)[C@H](CC(C)C)NC(=O)[C@H](CCCCN)NC(=O)[C@H](CC(C)C)NC(=O)CNC(=O)[C@H](Cc2ccccc2)NC(=O)[C@@H](NC(=O)CNC(=O)[C@H](CCCNC(=N)N)NC(=O)[C@H](CO)NC(=O)[C@H](CC(C)C)NC(=O)CNC(=O)[C@H](CCCNC(=N)N)NC(=O)[C@H](CCCNC(=N)N)NC(=O)[C@H](CC(N)=O)NC(=O)[C@H](C)NC(=O)CNC(=O)CCOCCOCCOCCOCCOCCOCCOCCOCCOCCOCCOCCOCCOCCOCCOCCOCCOCCOCCOCCOCCOCCOCCOCCOC)CSSC[C@@H](C(=O)O)NC(=O)CNC(=O)[C@H](CC(C)C)NC(=O)CNC(=O)[C@H](CO)NC(=O)[C@H](CCSC)NC(=O)[C@H](CO)NC(=O)CNC1=O [PEO24-GANRR-CNP22(K4R)] ({MeO(CH2CH2O)23CH2CH2CO}-GANRRGLSRGCFGLKLDRIGSMSGLGC-OH; disulfide 11-27)
levels of cleaved collagen type II in conditioned media ([1]; FGFR3^ach mouse femurs): significantly increased (p<0.05) | cGMP levels in conditioned media ([1]; ex-planted FGFR3^ach mouse femurs and tibias, day 8): large increase (p<0.01) | longitudinal growth of FGFR3^ach mouse femur ex vivo ([1]; treated every two days): increased the longitudinal growth of FGFR3^ach mouse femur compared to vehicle | longitudinal growth of FGFR3^ach mouse tibia ex vivo ([1]; treated every two days): increased the longitudinal growth of the tibia compared to vehicle or CNP22 | Femur length, relative to vehicle-treated FGFR3^ach mice = 100% [2]: 100% | Humerus length, relative to vehicle-treated FGFR3^ach mice = 100% [2]: 100% | Naso-Anal length, relative to vehicle-treated FGFR3^ach mice = 100% [2]: 99% | Tail length, relative to vehicle-treated FGFR3^ach mice = 100% [2]: 100% | Tibia length, relative to vehicle-treated FGFR3^ach mice = 100% [2]: 102% | Ulna length, relative to vehicle-treated FGFR3^ach mice = 100% [2]: 101%
